Source: US12595280B2, “Phosphoramidates for the treatment of hepatitis B virus” (priority 2014, dated 2026)
Like-named read-outs stand apart in the source and are kept apart here.

Tests used:
[1] = system: HBV encoded polymerase (Hepatitis B virus genotype D subtype ayw); details: cited from earlier work
HBV = HBV efficacy assay: viral DNA in HepG2.2.15 supernatant by qPCR; assay type: cell-based; details: Hepatitis B virus
Method: HepG2.2.15 cells (100 μL) in RPMI1640 medium with 10% fetal bovine serum was added to all wells of a 96-well plate at a density of 1×10^4 cells per well and the plate was incubated at 37° C. in an environment of 5% CO2 for 24 hours. Following incubation, six ten-fold serial dilutions of test compound prepared in RPMI1640 medium with 10% fetal bovine serum were added to individual wells of the plate in triplicate. Six wells in the plate received medium alone as a virus only control. The plate was incubated for 6 days at 37° C. in an environment of 5% CO2. The culture medium was changed on day 3 with medium containing the indicated concentration of each compound. One hundred microliters of supernatant was collected from each well for analysis of viral DNA by qPCR and cytotoxicity was evaluated by XTT staining of the cell culture monolayer on the sixth day.
Ten microliters of cell culture supernatant collected on the sixth day was diluted in qPCR dilution buffer (40 μg/mL sheared salmon sperm DNA) and boiled for 15 minutes. Quantitative real time PCR was performed in […] using an Applied Biosystems 7900HT Sequence Detection System and the supporting SDS 2.4 software. Five microliters (5 μL) of boiled DNA for each sample and serial 10-fold dilutions of a quantitative DNA standard were subjected to real time Q-PCR using Platinum Quantitative PCR SuperMix-UDG (Invitrogen) and specific DNA oligonucleotide primers (IDT, Coralville, […]) HBV-AD38-qF1 (5′-CCGTCTGTGCCTTCTCATCTG-3′) (SEQ ID NO: 1), HBV-AD38-qR1 (5′-AGT CCA AGA GTY CTC TTA TRY AAG ACC TT-3′) (SEQ ID NO: 2), and HBV-AD38-qP1 (5′-FAM CCG TGT GCA/ZEN/CTT CGC TTC ACC TCT GC-3′BHQ1) (SEQ ID NO: 3, underlined portion only) at a final concentration of 0.2 μM for each primer in a total reaction volume of 15 μL. The HBV DNA copy number in each sample was interpolated from the standard curve by the SDS.24 software and the data were imported into an Excel spreadsheet for analysis.

[2] = human, in vivo; cited from earlier work
[3] = HepG2.2.15, 144 h, read-out: HBV Efficacy Assay EC50 (μM)
[4] = 144 h, HepG2.2.15 cells, 6 days, viral DNA in supernatant by qPCR, read-out: HBV Efficacy Assay EC50

Sequence of HBV encoded polymerase (Hepatitis B virus genotype D subtype ayw) (P03156 whole entry): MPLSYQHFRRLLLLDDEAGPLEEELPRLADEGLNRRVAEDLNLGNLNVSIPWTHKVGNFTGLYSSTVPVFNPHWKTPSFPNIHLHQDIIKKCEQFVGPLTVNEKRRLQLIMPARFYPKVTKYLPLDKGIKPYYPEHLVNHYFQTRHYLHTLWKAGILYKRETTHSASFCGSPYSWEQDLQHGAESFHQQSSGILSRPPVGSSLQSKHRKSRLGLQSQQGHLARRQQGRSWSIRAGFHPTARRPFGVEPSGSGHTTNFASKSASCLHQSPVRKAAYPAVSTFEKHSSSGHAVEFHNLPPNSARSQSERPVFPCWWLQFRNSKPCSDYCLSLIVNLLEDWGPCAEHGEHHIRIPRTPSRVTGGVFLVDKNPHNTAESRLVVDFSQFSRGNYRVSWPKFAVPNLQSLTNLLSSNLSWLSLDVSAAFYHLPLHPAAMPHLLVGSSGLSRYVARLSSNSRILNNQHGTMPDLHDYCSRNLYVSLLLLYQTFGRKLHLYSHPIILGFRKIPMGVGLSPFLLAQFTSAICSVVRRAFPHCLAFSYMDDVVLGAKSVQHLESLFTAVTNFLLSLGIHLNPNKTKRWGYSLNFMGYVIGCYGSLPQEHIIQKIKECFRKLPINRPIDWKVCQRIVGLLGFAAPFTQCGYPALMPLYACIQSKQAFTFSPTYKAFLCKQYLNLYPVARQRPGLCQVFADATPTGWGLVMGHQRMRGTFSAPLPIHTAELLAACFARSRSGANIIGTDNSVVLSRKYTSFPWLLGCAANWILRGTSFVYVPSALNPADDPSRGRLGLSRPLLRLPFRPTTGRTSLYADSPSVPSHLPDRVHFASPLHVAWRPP

Structure (SMILES)	EC50 (HBV; [3]) [µM]	also measured
Cc1cn([C@H]2O[C@@H](COP(=O)(O)OP(=O)(O)OP(=O)(O)O)C(O)C2F)c(=O)[nH]c1=O (some centres unmarked) [clevudine triphosphate, Clevudine-5′-Triphosphate]		mode of inhibition of the HBV encoded polymerase [1]: competitive non-substrate inhibitor
Cc1cn([C@H]2O[C@@H](CO[P@@](=O)(N[C@@H](C)C(=O)OC(C)C)Oc3ccccc3)[C@H](O[P@@](=O)(N[C@@H](C)C(=O)OC(C)C)Oc3ccccc3)[C@H]2F)c(=O)[nH]c1=O	2.9	
Cc1cn([C@H]2O[C@@H](CO)[C@H](O)[C@H]2F)c(=O)[nH]c1=O	0.46	
Cc1cn([C@H]2O[C@@H](CO[P@@](=O)(N[C@@H](C)C(=O)OC(C)C)Oc3ccccc3)[C@H](O)[C@H]2F)c(=O)[nH]c1=O	1.71	
Nc1ccn([C@@H]2CS[C@H](CO)O2)c(=O)n1		EC50 (HBV; [4]): 0.14 µM
Cc1cn([C@H]2O[C@@H](CO[P@](=O)(N[C@@H](C)C(=O)OC(C)C)Oc3ccccc3)C(O)C2F)c(=S)[nH]c1=O (some centres unmarked)	> 100	
Cc1cn([C@H]2O[C@@H](CO[P@](=O)(N[C@@H](C)C(=O)OC(C)C)Oc3ccccc3)[C@H](O)[C@H]2F)c(=O)[nH]c1=O	4.29	
Cc1cn([C@H]2O[C@@H](CO)[C@H](O)[C@H]2F)c(=O)[nH]c1=O [Clevudine]		adverse effect in patients [2]: drug-related skeletal myopathy
Cc1cn([C@H]2O[C@@H](CO[P@](=O)(N[C@@H](C)C(=O)OC(C)C)Oc3ccccc3)[C@H](O[P@](=O)(N[C@@H](C)C(=O)OC(C)C)Oc3ccccc3)[C@H]2F)c(=O)[nH]c1=O	2.39	
Cc1cn([C@H]2O[C@@H](CO)C(O)C2F)c(=S)[nH]c1=O (some centres unmarked)		EC50 (HBV; [4]): > 100 µM
Cc1cn([C@H]2O[C@@H](CO[P@@](=O)(N[C@@H](C)C(=O)OC(C)C)Oc3ccccc3)C(O)C2F)c(=S)[nH]c1=O (some centres unmarked)	> 100	
